{"source": "patent US6171808A", "about": "“Mutant luciferases” (priority 1995, dated 2001)", "key": {"[1]": {"target": "T1, Photinus pyralis luciferase, recombinant wild-type (601a) (Photinus pyralis, UniProt P08659)", "T1 construct": "made in house; host or cells: E. coli JM109 (pPW601a, derived from pDR540 and the luc gene of pGEM-luc)", "assay": "Km determination with respect to ATP, luminometric luciferase assay", "format": "biochemical", "details": "21° C., tricine pH7.8, 470 μM D-luciferin, 6.25 to 400 μM ATP"}, "[2]": {"target": "Photinus pyralis luciferase variant 601aK, E354K (thermostable mutant 354 lysine) (Photinus pyralis, UniProt P08659, E354K)", "sequence (P08659 whole entry E354K)": "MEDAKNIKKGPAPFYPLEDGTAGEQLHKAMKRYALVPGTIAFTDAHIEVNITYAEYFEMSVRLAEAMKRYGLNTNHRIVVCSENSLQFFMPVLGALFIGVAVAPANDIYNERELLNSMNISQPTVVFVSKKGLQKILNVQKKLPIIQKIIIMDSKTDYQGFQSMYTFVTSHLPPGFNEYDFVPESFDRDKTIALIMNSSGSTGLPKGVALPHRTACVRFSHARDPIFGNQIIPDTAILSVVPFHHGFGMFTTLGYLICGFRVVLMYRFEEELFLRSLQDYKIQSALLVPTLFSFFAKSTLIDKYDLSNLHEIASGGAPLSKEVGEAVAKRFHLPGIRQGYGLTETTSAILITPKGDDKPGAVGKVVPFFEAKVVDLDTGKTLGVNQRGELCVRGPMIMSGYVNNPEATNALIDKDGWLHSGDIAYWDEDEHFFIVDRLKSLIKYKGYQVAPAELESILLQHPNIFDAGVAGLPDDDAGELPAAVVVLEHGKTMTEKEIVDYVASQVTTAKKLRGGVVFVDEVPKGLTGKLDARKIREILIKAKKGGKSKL", "details": "read-out: Km value with respect to ATP; 21° C., tricine pH7.8, 470 μM D-luciferin, 6.25 to 400 μM ATP"}, "[3]": {"target": "T2, Photinus pyralis luciferase double mutant 601aG1K, E270K + E354K, SEQ ID No 4 (Photinus pyralis, UniProt P08659, E270K/E354K)", "T2 construct": "made in house; host or cells: E. coli JM109 (pPW601aG1K, pDR540-derived)", "T2 sequence (P08659 whole entry E270K/E354K)": "as the sequence (P08659 whole entry E354K) above, with E270K counted along it", "assay": "Km determination with respect to ATP, luminometric luciferase assay", "format": "biochemical", "details": "read-out: Km value with respect to ATP; 21° C., tricine pH7.8, 470 μM D-luciferin, 6.25 to 400 μM ATP"}, "[4]": {"target": "T3, Photinus pyralis luciferase variant 601aG1, E270K (270 lysine Km change), SEQ ID No 2 with Xaa = lysine (Photinus pyralis, UniProt P08659, E270K)", "T3 construct": "made in house; host or cells: E. coli BL21 (DE3) (pPW601G1)", "T3 sequence (P08659 whole entry E270K)": "as the sequence (P08659 whole entry E354K) above, with E270K, K354E counted along it", "assay": "Km determination with respect to ATP, luminometric luciferase assay", "format": "biochemical", "details": "read-out: Km value with respect to ATP; 21° C., tricine pH7.8, 470 μM D-luciferin, 6.25 to 400 μM ATP", "excerpt": "The Km mutant was initially generated by hydroxylamine induced mutagenesis of the luc gene within pPW304 to provide plasmid 304 G1 bearing a single base change in the DNA sequence at 811 of SEQ ID No 1 resulting in an amino acid glutamate change to lysine at position 270. A 1.1 kb DNA fragment (BstE II/Stu I) was cloned from pPW304 and used to replace the corresponding fragment in pP601a to form pPW601G1, thus providing a luc gene encoding for luciferase without the four extra amino acids encoded by pPW304 (M not included from M-A-R-I-Q)."}}, "data": [{"smiles": "Nc1ncnc2c1ncn2[C@@H]1O[C@H](COP(=O)(O)OP(=O)(O)OP(=O)(O)O)[C@@H](O)[C@H]1O", "note": "[ATP, adenosine triphosphate]", "values": [{"measurement": "Km", "setting": "[1]", "result": 66.1, "unit": "µM"}, {"measurement": "Km", "setting": "[2]", "result": 61.3, "unit": "µM"}, {"measurement": "Km", "setting": "[3]", "result": 25.2, "unit": "µM"}, {"measurement": "Km", "setting": "[4]", "result": 28.7, "unit": "µM"}]}]}
